Measured values reported in patent US6383773B2, “Penicillin conversion” (Massachusetts Institute of Technology, priority 1998, dated 2002).

Legend:
[1] = system: S. clavuligerus or C. acremonium expandase enzymes; settings: cited from earlier work; for ability to expand: in vitro (Bowers 1984; Baldwin 1987; Shibata 1996); for in vitro substrate: suggested by Baldwin et al. 1987, subsequent work failed to confirm
[2] = biological target: T1, S. clavuligerus expandase (Streptomyces clavuligerus, UniProt P18548); assay: Penicillin ring expansion by cell-free S. clavuligerus expandase extracts, paper disc-agar diffusion bioassay; assay type: biochemical; settings: 4 mg/ml extract protein; for Ring expansion, size of zones of inhibition: 2 mg/ml substrate (penicillin mX and octanoyl-6-APA 3 mg/ml), 2 hours; for Inhibition Zone Diameter: 2 hours of reaction, 250 μl in bioassay (E. coli ESS, penicillinase)
T1 construct: endogenous in cells; host or cells: S. clavuligerus mutant NP1, crude cell-free extract
T1 sequence (P18548 whole entry, the tested form may be a part): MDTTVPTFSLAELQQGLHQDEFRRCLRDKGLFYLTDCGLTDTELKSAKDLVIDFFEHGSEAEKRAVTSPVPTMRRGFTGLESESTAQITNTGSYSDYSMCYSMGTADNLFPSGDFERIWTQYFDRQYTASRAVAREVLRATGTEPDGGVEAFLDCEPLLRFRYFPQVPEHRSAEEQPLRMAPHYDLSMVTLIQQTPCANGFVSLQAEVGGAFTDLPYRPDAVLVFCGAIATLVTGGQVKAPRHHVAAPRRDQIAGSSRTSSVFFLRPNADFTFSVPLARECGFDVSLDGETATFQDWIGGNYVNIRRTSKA
Method: Preparation of Cell-free Extracts: Fermentation broths were centrifuged at 8,000×g and 4° C. for 10 min. Pellets were washed twice using 50 mM Tris-HCI supplemented with 0.1 mM dithiothreitol (DTT). The cells were resuspended in the same buffer and disrupted by four 25-sec. sonication treatments (power setting 5 and duty cycle 50%), in an ice-water bath using a Branson 350 sonifier (Branson Sonic Power Co., Danbury, Conn.). Cell debris was removed by centrifugation (14,000×g, 30 min., 4° C.). The resulting extracts containing 8-10 mg protein/ml were placed on ice and utilized immediately. Protein concentrations were measured using the Bio-Rad protein assay (Bio-Rad, Hercules, Calif.). Bovine serum albumin was used as standard.
Ring Expansion Reaction: We defined ring expansion reaction conditions as modifications of the standard reaction mixture for expandase reactions described by Maeda et al. (Maeda et al., Enzyme Microb. Technol. 17:231-34, 1995) except that penicillin G was used a substrate instead of penicillin N. Additions were made following the order established by Shen et al. (Shen et al., Enzyme Microb. Technol. 6:402-404, 1984. Reaction mixtures were incubated in test tubes (cell-free extract) or 250 ml baffled flasks (resting cells) at 220 rpm, 30° C. Reactions containing the protein extract were stopped at various times (see Table 1 and Figure Legends) by mixing 0.5 ml of assay solution with 0.5 ml of methanol. In the case of resting cells, samples were centrifuged to remove cells and supernatants were transferred to new tubes. Expandase activity was detected by paper disc-agar diffusion bioassay.
Detection of Expandase Activity: As mentioned above, expandase activity was detected by assaying production of a growth-inhibitory zone in a paper disc-agar diffusion bioassay. Paper discs were saturated with 200 μl of the reaction mixture (cell-free extracts or supernatant (resting cells) as follows. Two discs were superimposed and four 50 μl samples were applied. After each application, the discs were allowed to dry for 20 min at 37° C. under a laminar hood and, finally, they were placed on LB (1% tryptone, 0.5% NaCl, 0.5% yeast extract, 0.1% glucose) 0.8% agar medium seeded with E. coli ESS (a β-lactam supersensitive mutant), and the plates were incubated overnight at 37° C. The formation of DAOG and/or other cephalosporin(s) was determined by including 50,000 IU/ml of penicillinase (Difco Bacto penase concentrate, Difco Laboratories, Detroit, Mich.) in the assay plates. This penicillinase is a narrow spectrum β-lactamase that attacks penicillins but not cephalosporins. The diameters of zones of growth inhibition were measured and quantified with a calibration curve using DAOG as standard.
Ring Expansion of Other Penicillins by Cell-free Extracts: We tested our reaction conditions for their ability to support ring expansion on other penicillin substrates and found detectable expansion with each of the 15 substrates that we tested. […] The reactions contained 4 mg/ml extract (protein concentration), 50 mM Tris-HCl pH 7.4, 1.8 mM FeSO4, 1.28 mM α-ketoglutarate, 8 mM MgSO4, 8 mM KCl, 4 mM ascorbic acid, 14 mM DTT, and 2 mg/ml substrate (except for penicillin mX and octanoyl-6-APA, which were used at 3 mg/ml). Samples were centrifuged at 12K rpm for 5 minutes after 2 hours of reaction. 250 μl of reaction mixture was used in each bioassay.

[3] = biological target: T1, S. clavuligerus expandase; settings: literature reports (Jensen 1982; Dotzlaf 1989; Yeh 1994; Maeda 1995); cited from earlier work
[4] = biological target: T2, C. acremonium expandase (Hapsidospora chrysogena, UniProt P11935); settings: cited from earlier work; for substrate for expandase activity: crude extracts (Kohsaka et al. 1976; Demain et al.)
T2 sequence (P11935 1-332): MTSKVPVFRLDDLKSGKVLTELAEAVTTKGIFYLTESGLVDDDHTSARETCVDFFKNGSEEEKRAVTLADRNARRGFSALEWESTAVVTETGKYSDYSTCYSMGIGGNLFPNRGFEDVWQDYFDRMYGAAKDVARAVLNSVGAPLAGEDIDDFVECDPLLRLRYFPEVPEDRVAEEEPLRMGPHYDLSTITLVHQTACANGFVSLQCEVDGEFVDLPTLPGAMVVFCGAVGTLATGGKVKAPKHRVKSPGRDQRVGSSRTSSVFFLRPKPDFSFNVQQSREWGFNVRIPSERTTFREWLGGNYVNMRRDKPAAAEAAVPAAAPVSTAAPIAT

Molecule	Ring expansion, size of zones of inhibition [2]	Inhibition Zone Diameter ([2]; 2 mg/ml substrate)	ring expansion [3]	further results
D-carboxymethylcysteinyl-6-APA	–	–	–	ability to expand [1]: some ability
CC/C=C/CC(=O)N[C@@H]1C(=O)N2[C@@H]1SC(C)(C)[C@@H]2C(=O)O [Penicillin F, penicillin F]	intermediate size zones	21 mm	–	–
CCCC(=O)NC1C(=O)N2C1SC(C)(C)C2C(=O)O (stereo not shown) [Butyryl-6-APA, butyryl-6-APA]	intermediate size zones	17.5 mm	not	–
CCCCCCCC(=O)N[C@@H]1C(=O)N2[C@@H]1SC(C)(C)[C@@H]2C(=O)O [Octanoyl-6-APA, octanoyl-6-APA]	intermediate size zones	–	–	Inhibition Zone Diameter ([2]; 3 mg/ml substrate): 16 mm
D-glutamyl-6-APA	–	–	not	in vitro substrate [1]: at very low levels
CC1(C)S[C@@H]2[C@H](N)C(=O)N2[C@H]1C(=O)O [6-aminopenicillanic acid]	–	–	–	substrate for expandase activity [4]: not
CC1(C)S[C@@H]2[C@H](NC(=O)COc3ccccc3)C(=O)N2[C@H]1C(=O)O [Penicillin V, penicillin V]	smaller zones	7.5 mm	not	–
CCCCCCC(=O)NC1C(=O)N2[C@@H]1SC(C)(C)[C@@H]2C(=O)O (stereo partly shown) [Heptanoyl-6-APA, heptanoyl-6-APA]	intermediate size zones	16.5 mm	–	–
CCCCCC(=O)NC1C(=O)N2[C@@H]1SC(C)(C)[C@@H]2C(=O)O (stereo partly shown) [Hexanoyl-6-APA, hexanoyl-6-APA]	intermediate size zones	19.5 mm	–	–
glutamyl-6-APA	–	–	–	in vitro substrate [1]: at very low levels
CCCCCCCCCC(=O)NC1C(=O)N2C1SC(C)(C)C2C(=O)O (stereo not shown) [Decanoyl-6-APA, decanoyl-6-APA]	smaller zones	7 mm	–	–
CC1(C)S[C@@H]2[C@H](NC(=O)CCC[C@@H](N)C(=O)O)C(=O)N2[C@H]1C(=O)O [penicillin N]	–	–	expands the ring	substrate for expandase activity [4]: substrates
CCCCCCCC(=O)N[C@@H]1C(=O)N2[C@@H]1SC(C)(C)[C@@H]2C(=O)O [penicillin K]	–	–	not	–
CCCCC(=O)NC1C(=O)N2[C@@H]1SC(C)(C)[C@@H]2C(=O)O (stereo partly shown) [Valeryl-6-APA, valeryl-6-APA]	intermediate size zones	15 mm	–	–
CC1(C)S[C@@H]2[C@H](NC(=O)Cc3cccc(C(=O)O)c3)C(=O)N2[C@H]1C(=O)O [m-carboxyphenylacetyl-6-APA]	–	–	not	in vitro substrate [1]: at very low levels
CCCCCCCCC(=O)NC1C(=O)N2C1SC(C)(C)C2C(=O)O (stereo not shown) [Nonanoyl-6-APA, nonanoyl-6-APA]	smaller zones	10.5 mm	–	–
CC1(C)S[C@@H]2[C@H](NC(=O)Cc3ccc(O)cc3)C(=O)N2[C@H]1C(=O)O [Penicillin X, penicillin X]	Large zones of inhibition	30.5 mm	–	–
CC1(C)S[C@@H]2[C@H](NC(=O)CCCCC(=O)O)C(=O)N2[C@H]1C(=O)O [Adipyl-6-APA, adipyl-6-APA]	intermediate size zones	20 mm	not	ring expansion ([4]; partially purified enzyme (Kupka et al. 1983)): does not expand; ability to expand [1]: some ability
CC1(C)SC2C(NC(=O)Cc3cccs3)C(=O)N2C1C(=O)O (stereo not shown) [2-Thiophenylacetyl-6-APA, 2-thiophenylacetyl-6-APA]	Large zones of inhibition	32 mm	–	–
CCCCCC(=O)N[C@@H]1C(=O)N2[C@@H]1SC(C)(C)[C@@H]2C(=O)O [penicillin dihydroF]	–	–	not	–
